# Laboratory results from patent publication US20220363665A1, “QUINOLINE COMPOUNDS FOR THE TREATMENT OF AUTOIMMUNE DISEASE” (Hoffmann-La Roche Inc., priority 2019, published 2022).
# What was measured:
# Format in all cases: in vitro ADME
# CYP2C9 = biological target: T1, CYP2C9 (Homo sapiens, UniProt P11712); test: CYP inhibition assay in human liver microsome, CYP2C9; details: human, liver microsomes, probe diclofenac, HLM, diclofenac substrate, read-out: CYP inhibition % @10 uM (2C9)
# T1 construct: tissue BD-Gentest 452117; host or cells: human liver microsomes
# T1 sequence (P11712 whole entry): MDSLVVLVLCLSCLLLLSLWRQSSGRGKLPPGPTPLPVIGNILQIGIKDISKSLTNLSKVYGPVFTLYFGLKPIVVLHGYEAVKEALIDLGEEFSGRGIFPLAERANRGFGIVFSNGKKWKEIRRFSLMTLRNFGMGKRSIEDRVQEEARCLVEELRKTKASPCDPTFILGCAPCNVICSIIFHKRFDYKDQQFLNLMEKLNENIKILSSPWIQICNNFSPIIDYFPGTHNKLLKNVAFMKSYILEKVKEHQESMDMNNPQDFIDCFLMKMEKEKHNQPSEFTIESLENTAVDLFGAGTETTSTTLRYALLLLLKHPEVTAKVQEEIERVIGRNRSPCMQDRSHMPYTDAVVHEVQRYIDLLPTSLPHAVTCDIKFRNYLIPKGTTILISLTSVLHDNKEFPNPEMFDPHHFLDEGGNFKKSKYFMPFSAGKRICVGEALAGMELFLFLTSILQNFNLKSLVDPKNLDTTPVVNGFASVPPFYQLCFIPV
# Experimental: (§1) This is a high throughput screening assay used for assessment of reversible inhibition of CYP2C9, CYP2D6, and CYP3A4 activity of test compounds in human liver microsome (HLM) in early discovery stage.
# (§2) 10 mM DMSO stock solutions of test compounds were diluted in DMSO to generate 2 mM intermediate stock solution. 250 nL of intermediate stock solution were transferred in duplicate into 3 separate 384 well microtitre plates (assay-ready plates). A mixture of HLM and each substrate was made up. 45 μL of HLM substrate mix was then transferred to each well of an assay ready plate and mixed. The negative (solvent) and positive controls (standard inhibitor for each CYP) were included in each assay ready plate. The assay ready plate was warmed to 37° C. in an incubator over 10 minutes. 5 μL pre-warmed NADPH regenerating system was added to each incubation well to start the reaction. Final incubation volume was 50 μL. The assay plate then was placed back in the 37° C. incubator. After 5 minutes incubation (10 minutes for CYP2D6), incubates were quenched by addition of 50 μL quench reagent containing internal standards (400 ng/mL 13C6-4′-OH-Diclofenac, 20 ng/mL D3-Dextrorphan and 20 ng/mL D4-1′OH-Midazolam in acetonitrile). The supernatants were collected for RapidFire/MS/MS analysis.
# (§3) RapidFire online solid phase extraction/sample injection system (Agilent) coupled with API4000 triple quadrupole mass spectrometer (AB Sciex) were used for sample analysis. The mobile phase composed of acetonitrile and water supplemented with 0.1% formic acid. A C4 solid phase extraction cartridge is used for sample separation. MS detection is achieved in positive ion MRM mode.
# (§4) Peak areas for substrate, metabolite and internal standard are determined using the
# (§5) RapidFire integrator software (version 3.6.12009.12296). Peak area ratios (PAR) of metabolite and internal standard (stable-labelled metabolite) are then calculated. The measurement window for each experiment is then defined:
# (§6) PAR (0% activity)=average PAR for all incubations containing concentrated inhibitor;
# (§7) Par (100% activity)=average PAR for all incubations containing no inhibitor (DMSO controls);
# (§8) % Activity (test inhibitor) =[PAR(test inhibitor)-PAR(0% activity)][PAR(100% activity)-PAR(0% activity)];
# (§9) % Inhibition (test inhibitor)=100-% Activity (test inhibitor).
# (§10) Percentage inhibition data are then reported, in duplicate, for the 3 CYP enzymes.
# CYP2D6 = biological target: T2, CYP2D6 (Homo sapiens, UniProt P10635); test: CYP inhibition assay in human liver microsome, CYP2D6; details: human, liver microsomes, probe dextromethorphan, HLM, dextromethorphan substrate, read-out: CYP inhibition % @10 uM (2D6)
# T2 construct: tissue BD-Gentest 452117; host or cells: human liver microsomes
# T2 sequence (P10635 whole entry): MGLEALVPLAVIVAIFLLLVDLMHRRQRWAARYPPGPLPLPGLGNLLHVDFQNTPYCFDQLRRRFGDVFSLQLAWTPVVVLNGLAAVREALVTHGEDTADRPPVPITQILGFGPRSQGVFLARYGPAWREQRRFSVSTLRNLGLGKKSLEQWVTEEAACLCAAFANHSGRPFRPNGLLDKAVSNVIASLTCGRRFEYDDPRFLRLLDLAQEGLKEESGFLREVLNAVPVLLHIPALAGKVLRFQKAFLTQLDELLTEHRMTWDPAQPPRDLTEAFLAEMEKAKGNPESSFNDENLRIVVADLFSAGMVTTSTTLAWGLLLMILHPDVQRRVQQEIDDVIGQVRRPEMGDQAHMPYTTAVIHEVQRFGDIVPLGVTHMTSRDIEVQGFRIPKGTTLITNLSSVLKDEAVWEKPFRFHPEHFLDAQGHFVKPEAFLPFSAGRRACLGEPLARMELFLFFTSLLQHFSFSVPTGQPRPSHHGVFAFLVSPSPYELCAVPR
# Experimental: as §1, §2, §3, §4, §5, §6, §7, §8, §9, §10
# CYP3A4 = biological target: T3, CYP3A4 (Homo sapiens, UniProt P08684); test: CYP inhibition assay in human liver microsome, CYP3A4; details: human, liver microsomes, probe midazolam, HLM, midazolam substrate, read-out: CYP inhibition % @10 uM (3A4)
# T3 construct: tissue BD-Gentest 452117; host or cells: human liver microsomes
# T3 sequence (P08684 whole entry): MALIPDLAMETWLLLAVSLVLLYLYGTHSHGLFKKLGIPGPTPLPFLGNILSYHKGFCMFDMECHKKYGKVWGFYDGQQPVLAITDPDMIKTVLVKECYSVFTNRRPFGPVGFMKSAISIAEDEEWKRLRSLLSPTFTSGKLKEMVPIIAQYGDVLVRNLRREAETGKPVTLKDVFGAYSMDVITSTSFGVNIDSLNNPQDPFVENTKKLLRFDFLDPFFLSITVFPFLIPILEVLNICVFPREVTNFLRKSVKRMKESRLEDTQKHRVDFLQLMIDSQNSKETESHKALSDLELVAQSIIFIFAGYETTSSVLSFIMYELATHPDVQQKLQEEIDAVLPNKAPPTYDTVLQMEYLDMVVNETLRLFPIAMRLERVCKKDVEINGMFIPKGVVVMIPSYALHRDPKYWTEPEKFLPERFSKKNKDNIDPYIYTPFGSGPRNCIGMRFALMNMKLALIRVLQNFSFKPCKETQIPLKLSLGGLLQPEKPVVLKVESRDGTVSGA
# Experimental: as §1, §2, §3, §4, §5, §6, §7, §8, §9, §10
SMILES,"inhibition at 5 min, 10 µM (CYP2C9) [%]","inhibition at 10 min, 10 µM (CYP2D6) [%]","inhibition at 5 min, 10 µM (CYP3A4) [%]"
"Cc1ccc(N2C[C@@H](C)O[C@@H](C(=O)NCC3CN(C)CCO3)C2)c2cccnc12 (stereo partly drawn) [Example 17, (2R,6R)-6-methyl-N-[(4-methylmorpholin-2-yl)methyl]-4-(8-methyl-5-quinolyl)morpholine-2-carboxamide]",-4,3,-5
"C[C@@H]1CN(c2ccc([N+](=O)[O-])c3ncccc23)C[C@H](C(=O)NCC2CN(C)CCO2)O1 (stereo partly drawn) [Example 18, (2R,6R)-6-methyl-N-[(4-methylmorpholin-2-yl)methyl]-4-(8-nitro-5-quinolyl)morpholine-2-carboxamide]",-4,0,11
"C[C@@H]1CN(c2ccc([N+](=O)[O-])c3ncccc23)C[C@H](C(=O)NC2CCN(C)CC2)O1 [Example 20, (2R,6R)-6-methyl-N-(1-methyl-4-piperidyl)-4-(8-nitro-5-quinolyl)morpholine-2-carboxamide]",-6,-12,6
"C[C@@H]1CN(c2ccc(Cl)c3ncccc23)C[C@H](C(=O)NC2CCCNCC2)O1 (stereo partly drawn) [Example 25, (2R,6R)-N-(azepan-4-yl)-4-(8-chloro-5-quinolyl)-6-methyl-morpholine-2-carboxamide]",26,0,2
"C[C@@H]1CN(c2ccc(Cl)c3ncccc23)C[C@H](C(=O)NCC2CN(C)CCO2)O1 (stereo partly drawn) [Example 26, (2R,6R)-4-(8-chloro-5-quinolyl)-6-methyl-N-[(4-methylmorpholin-2-yl)methyl]morpholine-2-carboxamide]",-13,3,-5
"C[C@@H]1CN(c2ccc(C(F)(F)F)c3ncccc23)C[C@H](C(=O)NC[C@@H]2C[C@@H](F)CN2)O1 [Example 27, (2R,6R)-N-[[(2S,4R)-4-fluoropyrrolidin-2-yl]methyl]-6-methyl-4-[8-(trifluoromethyl)-5-quinolyl]morpholine-2-carboxamide]",-8,6,-2

# Now from value to compound:
"inhibition at 5 min, 10 µM (CYP2C9) [%]","inhibition at 10 min, 10 µM (CYP2D6) [%]","inhibition at 5 min, 10 µM (CYP3A4) [%]",SMILES
23,2,-30,"C[C@@H]1CN(c2ccc(C(F)(F)F)c3ncccc23)C[C@H](C(=O)NC2CNCC(F)(F)C2)O1 (stereo partly drawn) [Example 28, (2R,6R)-N-(5,5-difluoro-3-piperidyl)-6-methyl-4-[8-(trifluoromethyl)-5-quinolyl]morpholine-2-carboxamide]"
20,20,20,C[C@@H]1CN(c2ccc(C(F)(F)F)c3ncccc23)C[C@H](C(=O)NC[C@@H]2CC(F)(F)CN2)O1 [Example 30]
-1,2,-29,"C[C@@H]1CN(c2ccc(C(F)(F)F)c3ncccc23)C[C@H](C(=O)NC2C3CCC2CNC3)O1 (stereo partly drawn) [Example 31, (2R,6R)-N-(3-azabicyclo[3.2.1]octan-8-yl)-6-methyl-4-[8-(trifluoromethyl)-5-quinolyl]morpholine-2-carboxamide]"
-8,-22,-2,"C[C@@H]1CN(c2ccc(C(F)(F)F)c3ncccc23)C[C@H](C(=O)N2CCC3(CCNCC3)CC2)O1 [Example 32, 3,9-diazaspiro[5.5]undecan-3-yl-[(2R,6R)-6-methyl-4-[8-(trifluoromethyl)-5-quinolyl]morpholin-2-yl]methanone]"
-3,-1,-2,"C[C@@H]1CN(c2ccc(I)c3ncccc23)C[C@H](C(=O)NC2CCN(C)CC2)O1 [Example 38, (2R,6R)-4-(8-iodo-5-quinolyl)-6-methyl-N-(1-methyl-4-piperidyl)morpholine-2-carboxamide]"
-7,5,5,"C[C@@H]1CN(c2ccc(I)c3ncccc23)C[C@H](C(=O)NCC2CN(C)CCO2)O1 (stereo partly drawn) [Example 39, (2R,6R)-4-(8-iodo-5-quinolyl)-6-methyl-N-[(4-methylmorpholin-2-yl)methyl]morpholine-2-carboxamide]"
